According to US6469013B2, “Therapeutic compounds” (Parker Hughes Institute, priority 1998, dated 2002):

Experiments:
[1] = system: HaCaT human epidermal cells; experiment: UVB-induced PGE2 release (EIA); format: cell-based; conditions: light or radiation study, UVB 25 mj/cm^2, 6 h, read-out: inhibition in UVB light induced prostaglandin release
Description: HaCaT, which is a spontaneously transformed human epidermal cell line (16) was maintained in Dulbecco's modified Eagle's medium (DMEM) supplemented with 10% fetal bovine serum (Summit Biotech, Ft. Collins, Colo.).
A bank of 8-FSX24T12/HO/UVB lamps (National Biological Corporation, Twinsburg, Ohio) that emits light predominantly in the UVB range, 280-320 nm was used to irradiate mice and cell cultures. The irradiance of UVB lamps was always measured before irradiation using a UVB meter (model—500C obtained from National Biological Corporation, Twinsburg, Ohio). The dose of UVB light used to irradiate cultures was 25 mj/cm^2. Anesthetized mice received UVB radiations to a 2.0 cm^2 area on their dorsal surface. […]
Confluent HaCaT cells cultured in 24-well culture dishes were washed three times with serum-free DMEM containing 1% bovine serum albumin (BSA) (Cayman chemicals, Ann Arbor, Mich.) and incubated with 3-30 μM compound compound 6 for 1 hour at 37° C. After incubation the cells were washed twice with PBS, and either exposed to 25 mj/cm^2 UVB light or stimulated with 50 ng/ml rhEGF, and fed with serum-free DMEM containing 1% BSA. compound 6 was readministered and the cells were incubated for 6 h at 37° C. […] Cellular protein was determined using the Pierce's BCA protein assay method (Smith, P. K., et al., 1985, Anal Biochem. 150 (1):76-85).

C57BL/6 recipients = experiment: Syngeneic islet graft function under long-term treatment; format: in vivo, mouse; conditions: 50 mg/kg
Description: Mice were fasted for 10 hours, and the glucose solution (1.5 g/kg body weight) was injected i.p. Before and after injection of glucose, blood samples were taken and blood glucose levels were measured (as described above) at 0, 30, 60 and 120 min time points.
The vehicle control—(n=3) and WHI-P131-treated C57BL/6 recipients (n=5) of islet allograft were sacrificed on day 14 post transplantation; Jak3 recipients (n=6) were sacrificed on day 100 post transplantation; the C57BL/6 recipients of syngeneic islets—vehicle control—(n=4) and WHI-P131-treated (n=5) were sacrificed on day 180 post transplantation. Kidneys bearing grafts were removed, fixed in 10% formalin and embedded in paraffin. Serial sections of graft area were cut and stained with hematoxylin and eosin. For insulin staining, sections were stained by immunoperoxidase method using 1:100 dilution of polyclonal guinea pig anti-insulin antibody (Gpx Insulin, Dako, Carpinteria, Calif.) and 1:100 dilution of secondary antibody conjugated to horse radish peroxidase (Guinea Pig Immunoglobulins HRP, Dako, Carpinteria, Calif.). Sections were briefly counterstained with hematoxylin and mounted for light microscopic examination.

COc1cc2ncnc(Nc3ccc(O)cc3)c2cc1OC [WHI-P131, 4-(4′-hydroxyl-phenyl)-amino-6,7-dimethoxyquinazoline]
inhibition at 30 µM [1]: ~90% | IPGTT, islet function vs controls (C57BL/6 recipients; day 70): no significant difference in islet function | nonfasting blood glucose (C57BL/6 recipients; day 70 of treatment): 124.6 ± 10.8 mg/dL | IPGTT, islet function vs controls (C57BL/6 recipients; day 180): not different | insulin expression in syngeneic grafts vs vehicle (C57BL/6 recipients; day 180, immunohistochemistry): comparable | non-fasting blood glucose level (C57BL/6 recipients; day 180 post transplantation): 115.2 ± 9.2 mg/dL | non-fasting blood glucose level vs vehicle control (C57BL/6 recipients; entire period of 180 days): did not differ
